Patent US9334267B2, “RAF inhibitor compounds” (Deciphera Pharmaceuticals, LLC, priority 2012, dated 2016)

What was measured:
Assay type in all cases: cell-based
Colo205 cells = assay: Colo-205 cell proliferation assay (resazurin); details: Homo sapiens; Colo-205 cells, V600E mutation; read-out: Cell Proliferation Inhibition IC50, nM Colo-205
Procedure: (§1) Colo205 cells (catalog #HB-8307) are obtained from the American Type Culture Collection (ATCC, Manassas, Va.). Briefly, cells are grown in RPMI 1640 supplemented with 10% characterized fetal bovine serum (Invitrogen, Carlsbad, Calif.), 1 mM sodium pyruvate, and 1% Penicillin/Streptomycin/L-Glutamine at 37 degrees Celsius, 5% CO2, and 95% humidity. Cells are allowed to expand until reaching 30-60% confluency at which point they are subcultured or harvested for assay use. A serial dilution of test compound is dispensed into a 384-well black clear bottom plate in triplicate. One thousand two-hundred fifty cells are added per well in 50 μL complete growth medium in the 384-well plate. Plates are incubated for 67 hours at 37 degrees Celsius, 5% CO2, and 95% humidity. At the end of the incubation period, 10 μL of a 440 μM solution of resazurin (Sigma, St. Louis, Mo.) in PBS is added to each well of the plate and plates are incubated for an additional 5 hours at 37 degrees Celsius, 5% CO2, and 95% humidity. Plates are read on a Synergy2 reader (Biotek, Winooski, Vt.) using an excitation of 540 nm and an emission of 600 nm. Data is analyzed using Prism software (Graphpad, San Diego, Calif.) to calculate IC50 values.
(§2) The A375, HT-29, and Colo-205 cells (ATCC) harbor a V600E mutation.

HCT-116 cells = assay: HCT-116 cell proliferation assay (resazurin); details: Homo sapiens, K-Ras mutation B-Raf wild type, read-out: Cell Proliferation Inhibition IC50, nM HCT-116
A375 cells = assay: A375 cell proliferation assay (CellTiter-Blue/resazurin); details: Homo sapiens, A-375, V600E mutation, read-out: Cell Proliferation Inhibition IC50, nM A375
Procedure: as §1, with “A375” for “Colo205”, “#CRL-1619)” for “#HB-8307)”, “DMEM High Glucose” for “RPMI 1640”, “Calif.)” for “Calif.), 1 mM sodium pyruvate,”, “70-95%” for “30-60%”, “Six hundred twenty-five” for “One thousand two-hundred fifty”
as §2

Sk-Mel-2 cells = assay: SK-Mel-2 cell proliferation assay (resazurin); details: Homo sapiens, N-Ras mutation B-Raf wild type, read-out: Cell Proliferation Inhibition IC50, nM SK-Mel-2

SMILES	IC50 (Colo205 cells)	IC50 (HCT-116 cells)	IC50 (A375 cells)	IC50 (Sk-Mel-2 cells)
CNc1ncc2cc(-c3cc(NC(=O)NCC(O)C(C)(C)C)c(F)cc3C)cnc2n1 (stereo not drawn) [Example 8, 1-[2-Fluoro-4-methyl-5-(2-methylaminopyrido[2,3-d]pyrimidin-6-yl)phenyl]-3-(2-hydroxy-3,3-dimethyl-butyl)urea]	< 100 nM	1000 to 10000 nM	100 to 1000 nM	100 to 1000 nM
CNc1ncc2cc(-c3cc(NC(=O)NCC4CC4(C)C)c(F)cc3C)cnc2n1 (stereo not drawn) [Example 9]	100 to 1000 nM	1000 to 10000 nM	100 to 1000 nM	100 to 1000 nM
CNc1ncc2cc(-c3cc(NC(=O)NCC(O)C(C)(C)C)c(F)cc3F)c(C)nc2n1 (stereo not drawn) [Example 11, 1-[2,4-Difluoro-5-(7-methyl-2-methylamino-pyrido[2,3-d]pyrimidin-6-yl)phenyl]-3-(2-hydroxy-3,3-dimethyl-butyl)urea]	100 to 1000 nM	1000 to 10000 nM	100 to 1000 nM	100 to 1000 nM
CNc1ncc2cc(-c3cc(NC(=O)NCCC(C)(C)C#N)c(F)cc3F)c(C)nc2n1 [Example 12, 1-(3-Cyano-3-methylbutyl)-3-(2,4-difluoro-5-(7-methyl-2-(methylamino)pyrido[2,3-d]pyrimidin-6-yl)phenyl)urea]	100 to 1000 nM	1000 to 10000 nM	1000 to 10000 nM	100 to 1000 nM
CNc1ncc2cc(-c3ccc(F)c(NC(=O)NCCC(C)(C)C#N)c3)c(C)nc2n1 [Example 13, 1-(3-Cyano-3-methylbutyl)-3-(2-fluoro-5-(7-methyl-2-(methylamino)pyrido[2,3-d]pyrimidin-6-yl)phenyl)urea]	100 to 1000 nM	1000 to 10000 nM	1000 to 10000 nM	100 to 1000 nM
CNc1ncc2cc(-c3cc(NC(=O)NC[C@H](O)C(C)(C)C)c(F)cc3C)cnc2n1 [Example 18, 1-[2-Fluoro-4-methyl-5-(2-methylaminopyrido[2,3-d]pyrimidin-6-yl)phenyl]-3-[(2R)-2-hydroxy-3,3-dimethyl-butyl]urea]	< 100 nM	100 to 1000 nM	100 to 1000 nM	100 to 1000 nM
CNc1ncc2cc(-c3cc(NC(=O)NC[C@@H](O)C(C)(C)C)c(F)cc3C)cnc2n1 [Example 19, 1-[2-fluoro-4-methyl-5-(2-methylaminopyrido[2,3-d]pyrimidin-6-yl)phenyl]-3-[(2S)-2-hydroxy-3,3-dimethyl-butyl]urea]	100 to 1000 nM	1000 to 10000 nM	100 to 1000 nM	100 to 1000 nM

Other lines, results leading:

IC50 (Colo205 cells)	IC50 (HCT-116 cells)	IC50 (A375 cells)	IC50 (Sk-Mel-2 cells)	SMILES
< 100 nM	100 to 1000 nM	< 100 nM	100 to 1000 nM	CNc1ncc2cc(-c3cc(NC(=O)NCCC(C)(C)C#N)c(F)cc3C)c(C)nc2n1 [Example 3, 1-(3-Cyano-3-methylbutyl)-3-(2-fluoro-4-methyl-5-(7-methyl-2-(methylamino)pyrido[2,3-d]pyrimidin-6-yl)phenyl)urea]
< 100 nM	100 to 1000 nM	< 100 nM	< 100 nM	CNc1ncc2cc(-c3cc(NC(=O)NC4CC(C)(C)C4)c(F)cc3C)c(C)nc2n1 [Example 6, 1-(3,3-Dimethylcyclobutyl)-3-(2-fluoro-4-methyl-5-(7-methyl-2-(methylamino)pyrido[2,3-d]pyrimidin-6-yl)phenyl)urea]
< 100 nM	100 to 1000 nM	< 100 nM	< 100 nM	CNc1ncc2cc(-c3cc(NC(=O)NC4CC(C)(C)C4)c(F)cc3F)c(C)nc2n1 [Example 7, 1-(2,4-Difluoro-5-(7-methyl-2-(methylamino)pyrido[2,3-d]pyrimidin-6-yl)phenyl)-3-(3,3-dimethylcyclobutyl)urea]
100 to 1000 nM	1000 to 10000 nM	100 to 1000 nM	1000 to 10000 nM	Cc1cc(F)c(NC(=O)NCC(O)C(C)(C)C)cc1-c1cc2cnc(N)nc2nc1C (stereo not drawn) [Example 10]
< 100 nM	100 to 1000 nM	100 to 1000 nM	1000 to 10000 nM	CNc1ncc2cc(-c3cc(NC(=O)NCCC(C)(C)OC)c(F)cc3C)c(C)nc2n1 [Example 14, 1-(2-Fluoro-4-methyl-5-(7-methyl-2-(methylamino)pyrido[2,3-d]pyrimidin-6-yl)phenyl)-3-(3-methoxy-3-methylbutyl)urea]
